Results published in US11642671B2, “Electrowetting on dielectric (EWOD) device to perform liquid-to-liquid extraction (LLE) of biomolecules and systems and methods for using the EWOD device” (Board of Regents, The University of Texas System, priority 2019, dated 2023).

Test: Multistage LLE (MLLE) of binary dye mixture on EWOD device with IL extractant
Type: physicochemical
Conditions: binary 1:1 green/yellow dye sample
Protocol: The sample phase was prepared by mixing equal amounts of these two dyes. The final concentration of each analyte in the sample mixture formed was 1250 μg/ml for all the EWOD LLE experiments. […]
For the LLE process on an EWOD DMF electrode array, the droplets were generated, mixed, and split during the process. […] The on-chip concentration method quantified the yield of the LLE process. […]
In order to explore this characteristic of EWOD, MLLE was performed in this study with two cycles of LLE. […] After each cycle of the process, the sample droplet was transported to the concentration measurement electrode, and the voltage measurement was done for absorbance.
Next, the results of binary separation by MLLE performed on the EWOD device 20 was compared with theoretical values. The theoretical values were calculated from the partition coefficient values of each solute obtained in the manner described above. […]

- green dye extracted after first cycle of LLE on EWOD (IL extractant, extraction time 5 minutes): ~50%
- initial green dye extracted at the end of the second cycle (fresh IL droplet, two MLLE cycles): ~60%
SMILES: Cc1ccc(Nc2ccc(Nc3ccc(C)cc3S(=O)(=O)[O-])c3c2C(=O)c2ccccc2C3=O)c(S(=O)(=O)[O-])c1.[Na+].[Na+] [green dye, acid green 25]
